# In patent US4242350A, “Antisecretory thiadiazole derivatives, processes for their manufacture and pharmaceutical compositions containing them” (Imperial Chemical Industries Limited, priority 1978, dated 1980):
# Experiments:
# [1] = oral toxicity in rodents; assay type: in vivo; details: dosed orally to rodents at 300 mg/kg
# [2] = oral tolerance in dogs; assay type: in vivo; details: dogs dosed orally with 100 mg./kg.
# Source text: No overt toxicity or side effects were noted during the dog tests.
compound,measurement,setting,value
"CNC(=NC#N)NCCSCc1nsc(NC(=N)N)n1 [3-[2-(2-cyano-3-methylguanidino)ethylthiomethyl]-5-guanidino-1,2,4-thiadiazole]",toxicity,[1],no toxicity
same,tolerance,[2],well tolerated
